Measured values from paper PMC6017062, “Probing the Inhibitor versus Chaperone Properties of sp^2-Iminosugars towards Human β-Glucocerebrosidase: A Picomolar Chaperone for Gaucher Disease” (Molecules : A Journal of Synthetic Chemistry and Natural …, 2018).
Where a chain is given by its changes, count along the chain named.

Legend:
[1] = tested on: β-glucosidases (almonds/bovine enzymes); conditions: 4 compared with its DIJ epimer 7
Excerpt: (§1) We first evaluated the inhibitory properties of the new nonreducing mono- and bicyclic sp^2-iminosugars 4–15 against a panel of commercial glycosidases that included the α-glucosidases maltase (yeast maltase; α-Glcase1) and isomaltase (α-Glcase2) from Saccharomyces cerevisiae and amyloglucosidase (α-Glcase3) from Aspergillus niger, the β-glucosidases from almonds (β-Glcase1) and bovine liver (β-Glcase2), the α-galactosidase from green coffee beans (α-Galase), the β-galactosidase from Escherichia coli (β-Galase), and the α-mannosidase from Jack bean (α-Manase).
Inhibition constant (Ki) values were determined by spectrophotometrically measuring the residual hydrolytic activities of the glycosidases against the respective o- (for β-galactosidase from E. coli) or p-nitrophenyl α- or β-D-glycopyranoside (for other glycosidases) in the presence of the iminosugars. […] The absorbance of the resulting mixture was determined at 405 nm. Approximate value of Ki was determined from the slope of Dixon plots using a fixed concentration of substrate (around the Km value for the different glycosidases) and various concentrations of inhibitor. Full Ki determinations and enzyme inhibition mode were determined from the slope of Lineweaver–Burk plots and double reciprocal analysis.

isomaltase (α-Glcase2) = target: T1, isomaltase (α-Glcase2) (Saccharomyces cerevisiae, UniProt P53051); experiment: Commercial glycosidase inhibition: isomaltase (α-Glcase2); format: biochemical; conditions: mean ± SD, three determinations; competitive; n.i. = no inhibition detected at 1 mM
T1 construct: purchased
T1 sequence (P53051 whole entry): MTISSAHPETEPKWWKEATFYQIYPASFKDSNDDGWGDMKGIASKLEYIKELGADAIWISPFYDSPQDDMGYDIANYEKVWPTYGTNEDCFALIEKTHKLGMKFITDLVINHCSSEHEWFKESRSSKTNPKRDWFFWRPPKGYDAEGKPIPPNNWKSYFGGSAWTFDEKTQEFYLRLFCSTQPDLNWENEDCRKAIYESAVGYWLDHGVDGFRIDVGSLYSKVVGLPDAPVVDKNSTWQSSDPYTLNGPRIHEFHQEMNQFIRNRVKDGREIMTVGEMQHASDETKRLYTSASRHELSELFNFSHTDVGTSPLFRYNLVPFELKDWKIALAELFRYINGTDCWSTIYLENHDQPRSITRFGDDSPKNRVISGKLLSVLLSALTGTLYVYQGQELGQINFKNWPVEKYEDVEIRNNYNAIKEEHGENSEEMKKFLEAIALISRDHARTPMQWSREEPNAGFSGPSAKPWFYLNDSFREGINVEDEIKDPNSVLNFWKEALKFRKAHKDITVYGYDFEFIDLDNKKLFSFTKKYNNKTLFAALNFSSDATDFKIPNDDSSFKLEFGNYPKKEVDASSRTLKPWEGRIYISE
Excerpt: as §1
(§2) Inhibition constant (Ki) values were determined by spectrophotometrically measuring the residual hydrolytic activities of the glycosidases against the respective o- (for β-galactosidase from E. coli) or p-nitrophenyl α- or β-D-glycopyranoside (for other glycosidases) in the presence of the iminosugars. Each assay was performed in phosphate buffer or phosphate-citrate buffer (for α- or β-mannosidase and amyloglucosidase) at the optimal pH for the enzymes. The reactions were initiated by addition of the enzyme to a solution of the substrate in the absence or presence of various inhibitor concentrations. The mixture was incubated for 10–30 min at 37 °C or 55 °C (for amyloglucosidase) and the reaction was quenched by addition of 1 M Na2CO3. Reaction times were appropriate to obtain 10–20% conversion of the substrate in order to achieve linear rates. The absorbance of the resulting mixture was determined at 405 nm. Approximate value of Ki was determined from the slope of Dixon plots using a fixed concentration of substrate (around the Km value for the different glycosidases) and various concentrations of inhibitor. Full Ki determinations and enzyme inhibition mode were determined from the slope of Lineweaver–Burk plots and double reciprocal analysis.

[2] = target: T2, α-glucosidase maltase (yeast maltase; α-Glcase1) (Saccharomyces cerevisiae, UniProt P53341); experiment: Commercial glycosidase inhibition: maltase (yeast maltase; α-Glcase1); format: biochemical; conditions: mean ± SD, three determinations; competitive; n.i. = no inhibition detected at 1 mM
T2 construct: purchased
T2 sequence (P53341 whole entry): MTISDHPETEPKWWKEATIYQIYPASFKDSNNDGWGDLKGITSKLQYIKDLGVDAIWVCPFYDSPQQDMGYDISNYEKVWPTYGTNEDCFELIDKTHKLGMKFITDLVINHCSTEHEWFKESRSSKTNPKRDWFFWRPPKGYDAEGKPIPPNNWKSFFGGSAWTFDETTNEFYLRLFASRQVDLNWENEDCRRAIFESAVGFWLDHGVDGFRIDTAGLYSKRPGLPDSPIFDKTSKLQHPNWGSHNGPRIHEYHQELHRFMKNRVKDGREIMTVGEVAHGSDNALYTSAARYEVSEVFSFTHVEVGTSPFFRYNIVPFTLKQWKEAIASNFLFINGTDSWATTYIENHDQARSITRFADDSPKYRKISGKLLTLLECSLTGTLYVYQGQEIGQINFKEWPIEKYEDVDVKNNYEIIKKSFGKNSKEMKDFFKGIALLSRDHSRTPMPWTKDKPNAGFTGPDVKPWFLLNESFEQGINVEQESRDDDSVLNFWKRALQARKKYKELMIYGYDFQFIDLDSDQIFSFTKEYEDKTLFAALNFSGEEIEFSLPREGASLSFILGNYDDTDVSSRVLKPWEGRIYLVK
Excerpt: as §1, §2

GCase = target: T3, GCase (Homo sapiens, UniProt P04062); experiment: GCase activity in cultured healthy human fibroblasts; format: cell-based
T3 construct: endogenous in cells; host or cells: normal human skin fibroblasts
T3 sequence (P04062 40-536): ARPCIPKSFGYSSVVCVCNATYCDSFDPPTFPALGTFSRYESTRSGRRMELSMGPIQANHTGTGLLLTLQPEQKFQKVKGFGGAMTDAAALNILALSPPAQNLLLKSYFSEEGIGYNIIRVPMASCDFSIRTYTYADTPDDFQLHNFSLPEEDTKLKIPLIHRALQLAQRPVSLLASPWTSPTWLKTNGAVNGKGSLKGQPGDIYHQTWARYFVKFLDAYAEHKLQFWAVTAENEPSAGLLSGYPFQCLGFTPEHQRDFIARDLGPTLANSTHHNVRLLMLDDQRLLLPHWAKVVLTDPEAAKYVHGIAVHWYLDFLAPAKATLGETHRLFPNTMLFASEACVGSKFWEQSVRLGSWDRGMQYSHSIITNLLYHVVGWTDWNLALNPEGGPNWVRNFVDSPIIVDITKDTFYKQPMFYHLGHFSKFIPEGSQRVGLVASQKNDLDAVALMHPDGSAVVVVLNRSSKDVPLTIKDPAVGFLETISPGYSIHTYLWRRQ
Protocol: For that purpose, cells were cultured for 5 days in the absence and in the presence of various concentrations of the compounds, then lysed, and the enzyme activity was determined using 4-methylumbelliferyl β-D-glucopyranoside as substrate. Higher GCase activities in the lysate indicate that larger amounts of the protein are present and that it is functional.
(§3) Normal and Gaucher disease patients’ skin fibroblasts were cultured in Dulbecco modified Eagle’s medium (WAKO, Richmond, VA, USA) supplemented with 10% fetal bovine serum (Nichirei Biosci. Inc., Tokyo, Japan) at 37 °C in 5% CO2. For measurement of chaperone activities, fibroblasts were plated onto 35 mm dishes at 50,000 cells per dish. After 24 h incubation, the medium with the indicated concentrations of compound was applied and cells were cultured for 96 h. Then, the lysates in 0.1% Triton-X100/distilled H2O were collected from the cells and assayed for lysosomal GCase as described above. To measure the cytotoxic effect of the compounds, normal human fibroblasts were plated onto 35 mm dishes at 15,000 cells per dish and incubated overnight. Then, the medium was changed with or without compounds. After 24 h incubation, the supernatant of the cells was collected and measured by the lactate dehydrogenase assay (WAKO, Richmond, VA, USA). All the cell lines used were tested for mycoplasma contamination before conducting the chaperone and toxicity assays.

N188S/G183W mutant GCase = target: T4, N188S/G183W mutant GCase (Homo sapiens, UniProt P04062, N227S); experiment: Chaperone test in N188S/G183W type 3 Gaucher patient fibroblasts; format: cell-based
T4 construct: endogenous in cells; host or cells: skin fibroblasts of N188S/G183W type 3 Gaucher patients
T4 sequence (P04062 40-536 N227S): T3 sequence (P04062 40-536) with N188S
Excerpt: To test the chaperoning capabilities, Gaucher fibroblasts from patients hosting the adult neuronopathic (type 3) Gaucher disease-associated N188S/G183W mutant GCase were employed. It is worth mentioning that the neuronopathic clinical subtypes of Gaucher disease remain currently at orphan status, given the inability of the recombinant enzyme used in enzyme replacement therapy or the glucosylceramide synthase inhibitor Zavesca® used in substrate reduction therapy to cross the blood–brain barrier. This mutation is located in the catalytic domain (domain III) of GCase and has been previously found to be responsive to sp^2-iminosugar-type chaperones. […] Yet, the activity trend as a function of the chaperone concentration was starkly different between them. Thus, the nonreducing representatives 3 and 4 reached the maximum chaperoning effect at 200 nM and as low as 2 nM concentration, respectively, as compared with 20 and 2 μM for the reducing homologues 1 and 2.
as §3

[3] = N188S/G183W Gaucher fibroblasts

## CCCCCCCCN=C1SCC2C(O)C(O)C(O)CN12 (stereo not drawn) [Compound 4, 1-Deoxy-6-thio-5-N,6-S-(N′-octyliminomethylidene)nojirimycin]
[1]
  fold stronger inhibition potency towards the β-glucosidases: 100 fold
Isomaltase (α-Glcase2)
  Ki α-Glcase2: n.i.
[2]
  Ki α-Glcase1: n.i. ^1
GCase
  GCase activity in lysates of healthy human fibroblasts at higher concentrations: significantly inhibited
GCase; 20 μM, 5 days culture
  GCase activity in lysates of healthy human fibroblasts at 20 μM: virtually full inhibition
N188S/G183W mutant GCase; 20 pM, patient fibroblasts
  N188S/G183W GCase activity enhancement at 20 pM: over 70%
N188S/G183W mutant GCase; 2 nM, patient fibroblasts
  N188S/G183W GCase activity enhancement at 2 nM: 300%
N188S/G183W mutant GCase; [3]
  concentration of maximum chaperoning effect: 2 nM
  concentration over which chaperone/inhibitor balance is unfavorable (net decrease in mutant enzyme activity vs control): > 0.2 µM
